From US9687479B2, “Multisubstituted aromatic compounds as serine protease inhibitors” (VERSEON CORPORATION, priority 2013, dated 2017)

Target: Human thrombin (Homo sapiens (Human), UniProt P00734)
Assay: Thrombin protease activity inhibition assay (chromogenic substrate S-2238)
Assay type: biochemical
Details: 3 nM thrombin, 125 μM S-2238, 10 min pre-incubation, RT
Method in brief: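 Ten-point, three-fold serial dilutions of compound tested against 3 nM enzyme at RT in Tris buffer (0.05 M, pH 7.4) with 0.015 M NaCl and 0.01% PEG-8000.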

IC50 [nM]	Compound
< 100	O=C(c1ccccc1Cl)n1nc(-c2cccn(Cc3ccccn3)c2=O)cc1NCc1ccc(Cl)s1 [Cmpd 246, 3-1-[(2-chlorophenyl)carbonyl]-5-[(5-chlorothiophen-2-yl)methyl]amino-1H-pyrazol-3-yl-1-(pyridin-2-ylmethyl)-1,2-dihydropyridin-2-one]
< 100	O=C(c1ccccc1)n1nc(-c2ccc[nH]c2=O)cc1NCc1ccc(Cl)s1 [Cmpd 61, 3-(1-benzoyl-5-[(5-chlorothiophen-2-yl)methyl]amino-1H-pyrazol-3-yl)-1,2-dihydropyridin-2-one]
< 100	CC(C)(C)C(=O)n1nc(-c2cccn(CC#N)c2=O)cc1NCc1ccc(Cl)s1 [Cmpd 56, 2-[3-(5-[(5-chlorothiophen-2-yl)methyl]amino-1-(2,2-dimethylpropanoyl)-1H-pyrazol-3-yl)-2-oxo-1,2-dihydropyridin-1-yl]acetonitrile]
< 100	CC1(C(=O)n2nc(-c3cccn(Cc4ccco4)c3=O)cc2NCc2ccc(Cl)s2)CCOCC1 [Cmpd 150, 3-(5-[(5-chlorothiophen-2-yl)methyl]amino-1-[(4-methyloxan-4-yl)carbonyl]-1H-pyrazol-3-yl)-1-(furan-2-ylmethyl)-1,2-dihydropyridin-2-one]
> 100000	O=C(c1ccccc1)n1nc(-c2cccn(Cc3ccncc3)c2=O)cc1NCc1ccc(Cl)s1 [Cmpd 68, 3-(1-benzoyl-5-[(5-chlorothiophen-2-yl)methyl]amino-1H-pyrazol-3-yl)-1-(pyridin-4-ylmethyl)-1,2-dihydropyridin-2-one]
< 100	COc1ccccc1C(=O)n1nc(-c2cccn(Cc3ccc(Cl)s3)c2=O)cc1NCc1ccc(Cl)s1 [Cmpd 40, 1-[(5-chlorothiophen-2-yl)methyl]-3-(5-[(5-chlorothiophen-2-yl)methyl]amino-1-[(2-methoxyphenyl)carbonyl]-1H-pyrazol-3-yl)-1,2-dihydropyridin-2-one]
10000 to 100000	O=c1c(-c2cc(NCc3ccc(Cl)s3)[nH]n2)cccn1Cc1ccccc1Cl [Cmpd 30, 1-[(2-chlorophenyl)methyl]-3-(5-[(5-chlorothiophen-2-yl)methyl]amino-1H-pyrazol-3-yl)-1,2-dihydropyridin-2-one]
> 100000	O=C(c1cccs1)n1nc(-c2cccn(Cc3cccnn3)c2=O)cc1NCc1ccc(Cl)s1 [Cmpd 185, 3-(5-[(5-chlorothiophen-2-yl)methyl]amino-1-[(thiophen-2-yl)carbonyl]-1H-pyrazol-3-yl)-1-(pyridazin-3-ylmethyl)-1,2-dihydropyridin-2-one]
< 100	O=C(c1cccc2c1OCCO2)n1nc(-c2cccn(Cc3ccsc3)c2=O)cc1NCc1ccc(Cl)s1 [Cmpd 118, 3-(5-[(5-chlorothiophen-2-yl)methyl]amino-1-[(2,3-dihydro-1,4-benzodioxin-5-yl)carbonyl]-1H-pyrazol-3-yl)-1-(thiophen-3-ylmethyl)-1,2-dihydropyridin-2-one]
100 to 1000	Cn1cccc(-c2cc(NCc3ccc(Cl)s3)n(C(=O)C3(C)COC3)n2)c1=O [Cmpd 148, 3-(5-[(5-chlorothiophen-2-yl)methyl]amino-1-[(3-methyloxetan-3-yl)carbonyl]-1H-pyrazol-3-yl)-1-methyl-1,2-dihydropyridin-2-one]
> 100000	O=c1c(-c2cc(NCc3ccc(Cl)s3)[nH]n2)cccn1Cc1ccc(Cl)s1 [Cmpd 42, 1-[(5-chlorothiophen-2-yl)methyl]-3-(5-[(5-chlorothiophen-2-yl)methyl]amino-1H-pyrazol-3-yl)-1,2-dihydropyridin-2-one]
< 100	CC(C)(C)C(=O)n1nc(-c2cccn(CCN3CCOCC3)c2=O)cc1NCc1ccc(Cl)s1 [Cmpd 89, 3-(5-[(5-chlorothiophen-2-yl)methyl]amino-1-(2,2-dimethylpropanoyl)-1H-pyrazol-3-yl)-1-[2-(morpholin-4-yl)ethyl]-1,2-dihydropyridin-2-one]
< 100	CC(C)(CO)C(=O)n1nc(-c2ccc[nH]c2=O)cc1NCc1ccc(Cl)s1 [Cmpd 91, 3-(5-[(5-chlorothiophen-2-yl)methyl]amino-1-(3-hydroxy-2,2-dimethylpropanoyl)-1H-pyrazol-3-yl)-1,2-dihydropyridin-2-one]
< 100	O=C(c1ccoc1)n1nc(-c2cccn(Cc3ccc(Cl)cc3)c2=O)cc1NCc1ccc(Cl)s1 [Cmpd 37, 1-[(4-chlorophenyl)methyl]-3-(5-[(5-chlorothiophen-2-yl)methyl]amino-1-[(furan-3-yl)carbonyl]-1H-pyrazol-3-yl)-1,2-dihydropyridin-2-one]
10000 to 100000	O=c1c(-c2cc(NCc3ccc(Cl)s3)[nH]n2)cccn1Cc1cccnn1 [Cmpd 226, 3-(5-[(5-chlorothiophen-2-yl)methyl]amino-1H-pyrazol-3-yl)-1-(pyridazin-3-ylmethyl)-1,2-dihydropyridin-2-one]
< 100	COc1ccc(C(=O)n2nc(-c3cccn(Cc4ccncc4)c3=O)cc2NCc2ccc(Cl)s2)c(OC)c1 [Cmpd 127, 3-(5-[(5-chlorothiophen-2-yl)methyl]amino-1-[(2,4-dimethoxyphenyl)carbonyl]-1H-pyrazol-3-yl)-1-(pyridin-4-ylmethyl)-1,2-dihydropyridin-2-one]

IC50 [nM]	Compound
< 100	O=C(c1ccccc1)n1nc(-c2cccn(Cc3cccs3)c2=O)cc1NCc1ccc(Cl)s1 [Cmpd 70, 3-(1-benzoyl-5-[(5-chlorothiophen-2-yl)methyl]amino-1H-pyrazol-3-yl)-1-(thiophen-2-ylmethyl)-1,2-dihydropyridin-2-one]
< 100	CC(C)(C)C(=O)n1nc(-c2cccn(Cc3ccc(Cl)cc3)c2=O)cc1NCc1ccc(Cl)s1 [Cmpd 35, 1-[(4-chlorophenyl)methyl]-3-(5-[(5-chlorothiophen-2-yl)methyl]amino-1-(2,2-dimethylpropanoyl)-1H-pyrazol-3-yl)-1,2-dihydropyridin-2-one]
< 100	CCOC(=O)Cn1cccc(-c2cc(NCc3ccc(Cl)s3)n(C(=O)c3ccccc3OC)n2)c1=O [Cmpd 258, ethyl 2-[3-(5-[(5-chlorothiophen-2-yl)methyl]amino-1-[(2-methoxyphenyl)carbonyl]-1H-pyrazol-3-yl)-2-oxo-1,2-dihydropyridin-1-yl]acetate]
< 100	CC(C)(C)C(=O)n1nc(-c2cccn(Cc3cccs3)c2=O)cc1NCc1ccc(Cl)s1 [Cmpd 86, 3-(5-[(5-chlorothiophen-2-yl)methyl]amino-1-(2,2-dimethylpropanoyl)-1H-pyrazol-3-yl)-1-(thiophen-2-ylmethyl)-1,2-dihydropyridin-2-one]
< 100	O=C(c1ccc(N2CCOCC2)cc1)n1nc(-c2ccc[nH]c2=O)cc1NCc1ccc(Cl)s1 [Cmpd 207, 3-(5-[(5-chlorothiophen-2-yl)methyl]amino-1-[4-(morpholin-4-yl)phenyl]carbonyl-1H-pyrazol-3-yl)-1,2-dihydropyridin-2-one]
> 100000	CC(C)(C)OC(=O)Cn1cccc(-c2cc(NCc3ccc(Cl)s3)[nH]n2)c1=O [Cmpd 264, tert-butyl 2-[3-(5-[(5-chlorothiophen-2-yl)methyl]amino-1H-pyrazol-3-yl)-2-oxo-1,2-dihydropyridin-1-yl]acetate]
1000 to 10000	O=c1c(-c2cc(NCc3ccc(Cl)s3)[nH]n2)cccn1Cc1cccc(Cl)c1 [Cmpd 34, 1-[(3-chlorophenyl)methyl]-3-(5-[(5-chlorothiophen-2-yl)methyl]amino-1H-pyrazol-3-yl)-1,2-dihydropyridin-2-one]
< 100	COc1ccccc1C(=O)n1nc(-c2cccn(Cc3cccc(Cl)c3)c2=O)cc1NCc1ccc(Cl)s1 [Cmpd 32, 1-[(3-chlorophenyl)methyl]-3-(5-[(5-chlorothiophen-2-yl)methyl]amino-1-[(2-methoxyphenyl)carbonyl]-1H-pyrazol-3-yl)-1,2-dihydropyridin-2-one]
1000 to 10000	O=C(Cn1cccc(-c2cc(NCc3ccc(Cl)s3)n[nH]2)c1=O)N1CCOCC1 [Cmpd 233, 3-(5-[(5-chlorothiophen-2-yl)methyl]amino-1H-pyrazol-3-yl)-1-[2-(morpholin-4-yl)-2-oxoethyl]-1,2-dihydropyridin-2-one]
< 100	O=C(c1ccccc1)n1nc(-c2cccn(Cc3cccnc3)c2=O)cc1NCc1ccc(Cl)s1 [Cmpd 67, 3-(1-benzoyl-5-[(5-chlorothiophen-2-yl)methyl]amino-1H-pyrazol-3-yl)-1-(pyridin-3-ylmethyl)-1,2-dihydropyridin-2-one]
< 100	O=C(c1ccc(N2CCOCC2)cc1)n1nc(-c2cccn(Cc3ccco3)c2=O)cc1NCc1ccc(Cl)s1 [Cmpd 209, 3-(5-[(5-chlorothiophen-2-yl)methyl]amino-1-[4-(morpholin-4-yl)phenyl]carbonyl-1H-pyrazol-3-yl)-1-(furan-2-ylmethyl)-1,2-dihydropyridin-2-one]
1000 to 10000	O=c1c(-c2cc(NCc3ccc(Cl)s3)[nH]n2)cccn1Cc1ccccc1 [Cmpd 54, 1-benzyl-3-(5-[(5-chlorothiophen-2-yl)methyl]amino-1H-pyrazol-3-yl)-1,2-dihydropyridin-2-one]
< 100	O=C(c1ccsc1)n1nc(-c2cccn(Cc3ccncc3)c2=O)cc1NCc1ccc(Cl)s1 [Cmpd 200, 3-(5-[(5-chlorothiophen-2-yl)methyl]amino-1-[(thiophen-3-yl)carbonyl]-1H-pyrazol-3-yl)-1-(pyridin-4-ylmethyl)-1,2-dihydropyridin-2-one]
< 100	O=C(c1ccccc1)n1nc(-c2cccn(Cc3ccsc3)c2=O)cc1NCc1ccc(Cl)s1 [Cmpd 71, 3-(1-benzoyl-5-[(5-chlorothiophen-2-yl)methyl]amino-1H-pyrazol-3-yl)-1-(thiophen-3-ylmethyl)-1,2-dihydropyridin-2-one]
< 100	O=C(c1ccc(N2CCOCC2)cc1)n1nc(-c2cccn(Cc3cccnn3)c2=O)cc1NCc1ccc(Cl)s1 [Cmpd 211, 3-(5-[(5-chlorothiophen-2-yl)methyl]amino-1-[4-(morpholin-4-yl)phenyl]carbonyl-1H-pyrazol-3-yl)-1-(pyridazin-3-ylmethyl)-1,2-dihydropyridin-2-one]
